How the values were obtained:
Flavopiridol [1] = compound: T1, CN1CC[C@H](c2c(O)cc(O)c3c(=O)cc(-c4ccccc4Cl)oc23)[C@H](O)C1 [Flavopiridol]; assay: increase in dead-cell fraction, 72 h; higher = more death;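 further: breast cancer cell lines in 384-well plates, stained with Hoechst plus LIVE/DEAD far red dye and imaged, cells above an LDR intensity threshold counted dead, Hoechst-negative corpses included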
LEE011/Ribociclib [2] = compound: T2, CN(C)C(=O)c1cc2cnc(Nc3ccc(N4CCNCC4)cn3)nc2n1C1CCCC1 [LEE011/Ribociclib]; assay: as above
[3] = compound: CCN1CCN(Cc2ccc(Nc3ncc(F)c(-c4cc(F)c5nc(C)n(C(C)C)c5c4)n3)nc2)CC1; assay: as above
[4] = compound: CC(=O)c1c(C)c2cnc(Nc3ccc(N4CCNCC4)cn3)nc2n(C2CCCC2)c1=O; assay: as above
Flavopiridol [5] = compound: T1, Flavopiridol; assay: GR value, 72 h; higher = faster growth (1 = untreated, <0 = killing);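 further: breast cancer and non-malignant breast epithelial lines, nine half-log doses, viable cells counted by Hoechst and LIVE/DEAD dye imaging versus time-zero plates and DMSO controls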
LEE011/Ribociclib [6] = compound: T2, LEE011/Ribociclib; assay: as above

Cell Line: PDX1258
- increase in dead-cell fraction (Flavopiridol [1]; 0.0001 µM): 0.0131
- increase in dead-cell fraction (Flavopiridol [1]; 0.0003162 µM): -0.0092
- increase in dead-cell fraction (Flavopiridol [1]; 0.001 µM): -0.0132
- increase in dead-cell fraction (Flavopiridol [1]; 0.003162 µM): -0.0012
- increase in dead-cell fraction (Flavopiridol [1]; 0.01 µM): 0.0042
- increase in dead-cell fraction (Flavopiridol [1]; 0.03162 µM): -0.0156
- increase in dead-cell fraction (Flavopiridol [1]; 0.1 µM): 0.0246
- increase in dead-cell fraction (Flavopiridol [1]; 0.3162 µM): 0.0926
- increase in dead-cell fraction (Flavopiridol [1]; 1 µM): 0.288
- increase in dead-cell fraction (LEE011/Ribociclib [2]; 0.001 µM): -0.0077
- increase in dead-cell fraction (LEE011/Ribociclib [2]; 0.003162 µM): 0.003
- increase in dead-cell fraction (LEE011/Ribociclib [2]; 0.01 µM): -0.0078
- increase in dead-cell fraction (LEE011/Ribociclib [2]; 0.03162 µM): -0.0297
- increase in dead-cell fraction (LEE011/Ribociclib [2]; 0.1 µM): -0.0249
- increase in dead-cell fraction (LEE011/Ribociclib [2]; 0.3162 µM): 0.0184
- increase in dead-cell fraction (LEE011/Ribociclib [2]; 1 µM): -0.0032
- increase in dead-cell fraction (LEE011/Ribociclib [2]; 3.162 µM): 0.0025
- increase in dead-cell fraction (LEE011/Ribociclib [2]; 10 µM): 0.0066
- increase in dead-cell fraction ([3]; 0.001 µM): 0.0001
- increase in dead-cell fraction ([3]; 0.003162 µM): -0.0098
- increase in dead-cell fraction ([3]; 0.01 µM): -0.0015
- increase in dead-cell fraction ([3]; 0.03162 µM): -0.003
- increase in dead-cell fraction ([3]; 0.1 µM): -0.0037
- increase in dead-cell fraction ([3]; 0.3162 µM): 0.0003
- increase in dead-cell fraction ([3]; 1 µM): 0.0382
- increase in dead-cell fraction ([3]; 3.162 µM): 0.142
- increase in dead-cell fraction ([3]; 10 µM): 0.354
- increase in dead-cell fraction ([4]; 0.0003162 µM): 0.0009
- increase in dead-cell fraction ([4]; 0.001 µM): -0.0052
- increase in dead-cell fraction ([4]; 0.003162 µM): -0.0004
- increase in dead-cell fraction ([4]; 0.01 µM): 0.0095
- increase in dead-cell fraction ([4]; 0.03162 µM): 0.0043
- increase in dead-cell fraction ([4]; 0.1 µM): 0.0062
- increase in dead-cell fraction ([4]; 0.3162 µM): -0.0028
- increase in dead-cell fraction ([4]; 1 µM): -0.0014
- increase in dead-cell fraction ([4]; 3.162 µM): 0.0061
- GR value (Flavopiridol [5]; 0.0001 µM): 1.03 GR
- GR value (Flavopiridol [5]; 0.0003162 µM): 0.973 GR
- GR value (Flavopiridol [5]; 0.001 µM): 1.02 GR
- GR value (Flavopiridol [5]; 0.003162 µM): 1.07 GR
- GR value (Flavopiridol [5]; 0.01 µM): 1.18 GR
- GR value (Flavopiridol [5]; 0.03162 µM): 0.831 GR
- GR value (Flavopiridol [5]; 0.1 µM): 0.5 GR
- GR value (Flavopiridol [5]; 0.3162 µM): -0.24 GR
- GR value (Flavopiridol [5]; 1 µM): -0.402 GR
- GR value (LEE011/Ribociclib [6]; 0.001 µM): 1.11 GR
- GR value (LEE011/Ribociclib [6]; 0.003162 µM): 1.12 GR
- GR value (LEE011/Ribociclib [6]; 0.01 µM): 0.914 GR
- GR value (LEE011/Ribociclib [6]; 0.03162 µM): 1.18 GR
- GR value (LEE011/Ribociclib [6]; 0.1 µM): 1.19 GR
- GR value (LEE011/Ribociclib [6]; 0.3162 µM): 1.11 GR
- GR value (LEE011/Ribociclib [6]; 1 µM): 0.93 GR
- GR value (LEE011/Ribociclib [6]; 3.162 µM): 1.14 GR
- GR value (LEE011/Ribociclib [6]; 10 µM): 1.02 GR

From the supplement of paper PMC9663587
